From PMC5387716, “Discovery of monocarbonyl curcumin-BTP hybrids as STAT3 inhibitors for drug-sensitive and drug-resistant breast cancer therapy” (Scientific Reports, 2017)

Legend:
Assay type in all cases: cell-based, human
Bcl-2 gene = assay: Quantitative real-time RT-PCR of Bcl-2; conditions: 24 h
Protocol: (§1) Levels of mRNA expression were analyzed with the RT-PCR assay, with total RNA isolated from MCF-7 or MCF-7/DOX cells using an EASYspin Plus tissue/cell RNA extraction kit (Aidlab Biotechnologies Co. Ltd). RNA was quantified by measuring absorption at 260 nm and 1 μg of RNA was reverse transcribed to cDNA using the Transcriptor First Strand cDNA Synthesis Kit (Roche Diagnostics, Basel, Switzerland). Thermal cycling conditions included 95 °C initial denaturation for 5 min, followed by 40 cycles of denaturation (10 s at 95 °C), annealing (15 s at 60 °C) and extension (15 s at 72 °C with a single fluorescence measurement), a melt curve program (60–95 °C with a 0.11 °C/s heat increase and continuous fluorescence measurement) and a cooling step to 40 °C. The Δ cycle threshold method was used for the calculation of relative differences in mRNA abundance with a LightCycler 480 (Roche Molecular Biochemicals, Mannheim, Germany). The data were normalized to the expression of GAPDH. The results were expressed as fold-changes. The RT-PCR primers that were used in this study are listed in the supporting information.

STAT1 = assay: IFN-γ induced STAT1 phosphorylation (western blot); conditions: MCF-7, 0.5–4 μM, 6 h, IFN-γ 50 ng/mL 30 min; compared with effect on IL-6-induced p-STAT3
Jak2 = assay: Western blot of p-Jak2; conditions: MCF-7 and MCF-7/DOX cells, 24 h
Protocol: (§2) MCF-7 or MCF-7/DOX cells were incubated with various concentrations of 6b for 24 h. After trypsinization, cells were treated with 1× RIPA lysis buffer (50 mM Tris–HCl, pH 7.4, 150 mM NaCl, 0.25% deoxycholic acid, 1% NP-40, 1 mM EDTA and protease inhibitors) (Amresco, Solon, USA) to extract the total proteins. An aliquot of proteins from the total cell lysates (30 to 60 μg/lane) was separated by sodium dodecyl sulfate (10%) polyacrylamide gel electrophoresis (SDS–PAGE, Bio-Rad Laboratories, Hercules, CA), wet-transferred to NC membrane (Bio-Rad Laboratories, Hercules, CA) and blotted with primary antibodies specific for STAT3, p-STAT3, p-Jak2, Jak2, p-Src, Src, Erk, P-Erk, PARP, cleaved PARP, Bcl-2, Bax, Cyclin D1, P-gp and GAPDH. Bound immuno-complexes were detected using ChemiDOC™ XRS + system (Bio-Rad Laboratories, Hercules, CA).

STAT3 [1] = assay: EMSA of STAT3 DNA-binding activity (hSIE probe); conditions: nuclear extracts of MCF-7 cells, 24 h
Protocol: MCF-7 cells were cultured overnight and then treated with compound 6b in fresh regular growth medium for 24 h. The cells were harvested and nuclear extract preparations and EMSA analysis were carried out as previously described. The ^32P-labeled oligonucleotide, hSIE probe, was used to bind STAT3.

MCF-7/DOX cells [2] = assay: Annexin V-APC/7-AAD flow cytometry of apoptosis, MCF-7/DOX; conditions: 24 h
Protocol: (§3) MCF-7, MCF-7/DOX or MCF-10A cells, at a density of 2.5 × 10^5 cells per well, were cultured in regular growth medium in 6-well plates for 24 h and treated in duplicate with different concentrations of 6b or curcumin for 24 h. The cells were harvested, washed and stained with 5 μL of Annexin V-APC and 5 μL of 7-AAD at room temperature for 15 min. Cells were then analyzed by flow cytometry (488 nm excitation and 600 nm emission filters) using a BD FACSCalibur flow cytometer (Becton & Dickinson Company, Franklin Lakes, NJ).

Bax gene = assay: Quantitative real-time RT-PCR of Bax; conditions: 24 h
Protocol: as §1

Src = assay: Western blot of p-Src; conditions: MCF-7 and MCF-7/DOX cells, 24 h
Protocol: as §2

MCF-7 cells = assay: Annexin V-APC/7-AAD flow cytometry of apoptosis, MCF-7; conditions: 24 h
Protocol: as §3

STAT3 [3] = assay: IL-6 induced STAT3 phosphorylation (western blot); conditions: 6 h, IL-6 50 ng/mL 30 min
Protocol: MCF-7 or MCF-7/DOX cells were seeded in 6-well plates and allowed to adhere overnight. The following day, the cells were serum-starved. The cells were then left untreated or were treated with 6b (0.5–4 μM). After 6 h, the untreated and 6b-treated cells were stimulated with IL-6 (50 ng/ml). The cells were harvested after 30 min and analyzed by western blot.

Erk1/2 = assay: Western blot of p-Erk1/2; conditions: MCF-7 and MCF-7/DOX cells, 24 h
Protocol: as §2

MCF-7/DOX cells [4] = assay: Colony survival assay, MCF-7/DOX; conditions: 24 h treatment, 14 d culture
Protocol: MCF-7 or MCF-7/DOX cells were cultured a 6-well plate at a density of 800–1,000 cells/well with regular growth medium. Cells were treated for 24 h with the vehicle and 6b at 0.15–1 μM on the following day. Cells were allowed to grow for 10–14 d until colonies were visible. Crystal violet solution (Sigma, St. Louis, MO, USA) was used to stain the colonies for 4 hours and colonies were imaged.

Cyclin D1 gene = assay: Quantitative real-time RT-PCR of Cyclin D1; conditions: 24 h
Protocol: as §1

## COc1ccc(/C=C/C(=O)N2CCN(C(=O)C3=Cc4cc(Br)ccc4S3(=O)=O)CC2)cc1 [Compound 6b, (E)-1-(4-(5-bromo-1,1-dioxidobenzo[b]thiophene-2-carbonyl)piperazin-1-yl)-3-(4-methoxyphenyl)prop-2-en-1-one]
Bcl-2 gene; MCF-7/DOX cells, 1.0 μM
  decrease in the gene expression level of Bcl-2: 27.5%
Bcl-2 gene; MCF-7/DOX cells, 2.0 μM
  decrease in the gene expression level of Bcl-2: 43.5%
Bcl-2 gene; MCF-7/DOX cells, 4.0 μM
  decrease in the gene expression level of Bcl-2: 71.0%
Bcl-2 gene; MCF-7 and MCF-7/DOX cells
  Bcl-2 gene level (in words): decreased in a dose-dependent manner
Bcl-2 gene; MCF-7 cells, 1.0 μM
  decrease in the gene expression level of Bcl-2: 11.7%
Bcl-2 gene; MCF-7 cells, 2.0 μM
  decrease in the gene expression level of Bcl-2: 45.8%
Bcl-2 gene; MCF-7 cells, 4.0 μM
  decrease in the gene expression level of Bcl-2: 61.2%
STAT1
  IFN-γ-induced STAT1 phosphorylation: less of an effect
Jak2
  phosphorylation of Jak2: inhibited
STAT3 [1]
  STAT3 DNA-binding activity: strongly inhibited STAT3 DNA-binding activity in a dose-dependent manner
MCF-7/DOX cells [2]; 1 μM
  apoptosis rate: 18.5%
MCF-7/DOX cells [2]; 2 μM
  apoptosis rate: 50.1%
MCF-7/DOX cells [2]; 4 μM
  apoptosis rate: 66.4%
Bax gene; MCF-7/DOX cells, 1.0 μM
  Bax gene expression increase: 14.0%
Bax gene; MCF-7/DOX cells, 2.0 μM
  Bax gene expression increase: 76.5%
Bax gene; MCF-7/DOX cells, 4.0 μM
  Bax gene expression increase: 125.0%
Bax gene; MCF-7 and MCF-7/DOX cells
  Bax gene level (in words): upregulated
Bax gene; MCF-7 cells, 1.0 μM
  Bax gene expression increase: 15.0%
Bax gene; MCF-7 cells, 2.0 μM
  Bax gene expression increase: 71.5%
Bax gene; MCF-7 cells, 4.0 μM
  Bax gene expression increase: 97.5%
Src
  p-Src expression: little effect
MCF-7 cells; 1 μM
  apoptosis rate: 15.7%
MCF-7 cells; 2 μM
  apoptosis rate: 37.9%
MCF-7 cells; 4 μM
  apoptosis rate: 67.2%
STAT3 [3]; MCF-7, 4 μM
  STAT3 phosphorylation induced by IL-6: almost completely abolished
STAT3 [3]; MCF-7, low concentration (0.5–4 μM tested)
  IL-6-induced phosphorylation levels of STAT3: decreased
Erk1/2
  p-Erk1/2 expression: little effect
MCF-7/DOX cells [4]; 0.25 μM
  clonogenic ability / colony formation: significant reduction in clonogenic ability
MCF-7/DOX cells [4]; 0.5 μM
  clonogenic ability / colony formation: almost a cessation of colony formation
Cyclin D1 gene; MCF-7/DOX cells, 1.0 μM
  decrease in the gene expression level of Cyclin D1: 18.5%
Cyclin D1 gene; MCF-7/DOX cells, 2.0 μM
  decrease in the gene expression level of Cyclin D1: 51.0%
Cyclin D1 gene; MCF-7/DOX cells, 4.0 μM
  decrease in the gene expression level of Cyclin D1: 75.0%
Cyclin D1 gene; MCF-7 and MCF-7/DOX cells
  Cyclin D1 gene level (in words): decreased in a dose-dependent manner
Cyclin D1 gene; MCF-7 cells, 1.0 μM
  decrease in the gene expression level of Cyclin D1: 16.0%
Cyclin D1 gene; MCF-7 cells, 2.0 μM
  decrease in the gene expression level of Cyclin D1: 28.4%
Cyclin D1 gene; MCF-7 cells, 4.0 μM
  decrease in the gene expression level of Cyclin D1: 45.5%
